{"source": "patent US20250243176A1", "about": "“(S)-1-(1-ACRYLOYLPIPERIDIN-3-YL)-2-FLUORO-5,6,7,8,9,10-HEXAHYDROCYCLO HEPTA[B]INDOLE-4-CARBOXAMIDE, AND RELATED CRYSTALLINE FORMS, COMPOSITIONS, AND METHODS THEREOF” (GB005, Inc., priority 2021, published 2025)", "key": {"[1]": {"target": "T1, Bruton's tyrosine kinase (BTK) (Homo sapiens, UniProt Q06187)", "T1 construct": "from tissue; host or cells: whole blood", "T1 sequence (Q06187 whole entry, species assumed)": "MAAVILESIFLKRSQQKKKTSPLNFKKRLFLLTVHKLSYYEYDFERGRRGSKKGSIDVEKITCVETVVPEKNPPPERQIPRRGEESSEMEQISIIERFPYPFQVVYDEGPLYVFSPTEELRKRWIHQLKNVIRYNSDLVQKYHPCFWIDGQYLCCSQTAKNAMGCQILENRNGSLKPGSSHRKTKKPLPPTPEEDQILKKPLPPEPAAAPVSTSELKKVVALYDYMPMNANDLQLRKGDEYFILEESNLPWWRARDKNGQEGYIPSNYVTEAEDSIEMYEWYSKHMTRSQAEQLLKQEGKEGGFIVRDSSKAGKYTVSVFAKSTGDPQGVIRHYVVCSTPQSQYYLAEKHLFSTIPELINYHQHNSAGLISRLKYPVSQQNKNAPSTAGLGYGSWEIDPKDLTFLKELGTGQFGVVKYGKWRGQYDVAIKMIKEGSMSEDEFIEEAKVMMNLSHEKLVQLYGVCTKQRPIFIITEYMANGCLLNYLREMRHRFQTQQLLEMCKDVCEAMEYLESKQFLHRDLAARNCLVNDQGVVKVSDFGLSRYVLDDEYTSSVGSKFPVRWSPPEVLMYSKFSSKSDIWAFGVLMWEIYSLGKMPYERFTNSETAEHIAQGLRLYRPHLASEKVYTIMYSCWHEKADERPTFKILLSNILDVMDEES", "assay": "BTK whole blood functional assay", "assay_type": "cell-based", "text": "(§1) (S)-1-(1-acryloylpiperidin-3-yl)-2-fluoro-5,6,7,8,9,10-hexahydrocyclohepta[b]indole-4-carboxamide, hereinafter referred to as “Compound 1”, is an orally available, selective, potent inhibitor of Bruton's tyrosine kinase (BTK), thereby providing potential treatment options in BTK-driven diseases. The potency of Compound 1 for BTK inhibition is in the nM range in both cell-free enzymatic and whole blood functional assays."}, "TEC": {"target": "T2, TEC (Homo sapiens, UniProt P42680)", "T2 sequence (P42680 1-631)": "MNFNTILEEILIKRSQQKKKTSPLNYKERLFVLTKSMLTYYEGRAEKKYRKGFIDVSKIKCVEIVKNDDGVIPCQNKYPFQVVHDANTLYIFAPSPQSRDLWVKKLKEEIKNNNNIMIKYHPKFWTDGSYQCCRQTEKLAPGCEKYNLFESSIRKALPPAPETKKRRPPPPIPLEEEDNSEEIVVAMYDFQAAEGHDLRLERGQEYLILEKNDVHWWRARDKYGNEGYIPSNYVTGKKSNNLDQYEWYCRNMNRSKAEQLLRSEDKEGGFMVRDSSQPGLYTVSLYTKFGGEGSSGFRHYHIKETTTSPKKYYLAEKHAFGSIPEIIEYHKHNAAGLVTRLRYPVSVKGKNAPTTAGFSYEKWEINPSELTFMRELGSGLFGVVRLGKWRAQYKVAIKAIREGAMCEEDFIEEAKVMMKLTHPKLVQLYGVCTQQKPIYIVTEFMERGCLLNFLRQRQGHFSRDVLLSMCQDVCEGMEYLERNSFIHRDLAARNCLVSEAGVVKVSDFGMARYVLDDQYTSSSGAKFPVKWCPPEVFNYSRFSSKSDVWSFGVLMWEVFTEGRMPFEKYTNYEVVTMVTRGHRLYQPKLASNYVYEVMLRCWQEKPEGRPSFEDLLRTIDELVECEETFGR", "assay": "Kinome scan, TEC", "assay_type": "biochemical", "text": "as §1"}, "TXK": {"target": "T3, TXK (Homo sapiens, UniProt P42681)", "T3 sequence (P42681 1-527)": "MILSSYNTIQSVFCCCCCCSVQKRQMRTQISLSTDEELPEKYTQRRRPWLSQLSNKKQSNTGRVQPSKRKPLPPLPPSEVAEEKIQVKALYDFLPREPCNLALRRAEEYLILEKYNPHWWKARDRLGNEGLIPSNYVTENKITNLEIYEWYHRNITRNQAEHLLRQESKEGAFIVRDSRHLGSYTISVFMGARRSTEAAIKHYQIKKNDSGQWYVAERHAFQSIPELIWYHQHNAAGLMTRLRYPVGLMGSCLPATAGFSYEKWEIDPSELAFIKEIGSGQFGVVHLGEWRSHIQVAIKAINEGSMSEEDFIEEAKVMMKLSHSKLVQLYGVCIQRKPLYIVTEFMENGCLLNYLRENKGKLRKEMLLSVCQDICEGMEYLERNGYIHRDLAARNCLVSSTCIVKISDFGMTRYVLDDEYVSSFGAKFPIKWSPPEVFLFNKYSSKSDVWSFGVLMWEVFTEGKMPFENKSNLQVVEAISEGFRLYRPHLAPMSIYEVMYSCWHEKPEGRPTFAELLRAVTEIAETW", "assay": "Kinome scan, TXK", "assay_type": "biochemical", "text": "as §1"}, "[2]": {"assay": "Further solubility testing in excipients, HPLC", "assay_type": "physicochemical", "description": "Compound 1 (˜0.5 g) was added to each excipient until visually saturated. The mixtures were incubated on a temperature-controlled mixer with glass beads to facilitating mixing, for at least 48 hours at room temperature (liquid excipients) or 40° C. (semisolid excipients). The samples were then centrifuged using 0.45 μm PVDF filter to separate the liquid and solid portions. The amount of dissolved compound in the filtrate was quantified by HPLC. XRPD analysis of any solid powder confirmed there was no change in form. The solubility results are presented in Table 16 and show Compound 1 had high solubility (>30 mg/g) in most of the screened excipients."}, "[3]": {"assay": "Solubility testing in aqueous media at various pH (Form III)", "assay_type": "physicochemical", "conditions": "thermodynamic from solid", "description": "0.833 mL concentrated hydrochloric acid was diluted to 100 mL with water (pH=1.0).\nAdded appropriate amount of water to 0.1N HCl, adjust the pH to 1.2.\nKH2PO4 (1360.0 mg) and NaOH (310.0 mg) are mixed in a 200 mL volumetric flask. Water was added to dissolve the solid and dilute to the volume. The flask was shaken to achieve good mixing. (pH=7.42).\nSolubility was measured in pH 1.0 water, pH 1.2 buffer and pH 7.4 buffer at room temperature and 37° C. About 10-15 mg of sample was weighed into sample vials and then 2.0/3.0 mL of 0.1 N HCl solution, pH 1.2 buffer and pH 7.4 buffer media, and water were added, respectively. Samples were run in duplicate for each medium. The suspensions were shaken at room temperature or 37° C. Residual solid was collected for XRPD analysis, though no form change occurred during testing. In all instances, very low solubility was observed."}, "[4]": {"conditions": "pH 7.4 buffer (KH2PO4/NaOH), aqueous buffer, pH 7.4 Buffer, 37° C."}, "[5]": {"conditions": "pH 7.4 buffer (KH2PO4/NaOH), aqueous buffer, pH 7.4 Buffer, RT"}, "[6]": {"conditions": "simulated gastric fluid, pH 1.0 (0.1N HCl), RT"}, "[7]": {"conditions": "simulated gastric fluid, pH 1.2 Buffer, 37° C."}}}
{"smiles": "C=CC(=O)N1CCC[C@@H](c2c(F)cc(C(N)=O)c3[nH]c4c(c23)CCCCC4)C1", "note": "[Compound 1, (S)-1-(1-acryloylpiperidin-3-yl)-2-fluoro-5,6,7,8,9,10-hexahydrocyclohepta[b]indole-4-carboxamide]", "values": [{"measurement": "potency for BTK inhibition", "setting": "[1]", "result": "nM range"}, {"measurement": "inhibition at 1 µM", "setting": "TEC", "result": "> 50", "unit": "%"}, {"measurement": "inhibition at 1 µM", "setting": "TXK", "result": "> 50", "unit": "%"}, {"measurement": "Solubility", "setting": "[2]; Capryol PGMC, at least 48 hours, RT (liquid) or 40° C. (semisolid excipients)", "result": 38.1, "unit": "mg/g"}, {"measurement": "Solubility", "setting": "[2]; Gelucire 44/14, at least 48 hours, RT (liquid) or 40° C. (semisolid excipients)", "result": 48.9, "unit": "mg/g"}, {"measurement": "Solubility", "setting": "[2]; Gelucire 50/13, at least 48 hours, RT (liquid) or 40° C. (semisolid excipients)", "result": 45.9, "unit": "mg/g"}, {"measurement": "Solubility", "setting": "[2]; Kolliphor ELP, at least 48 hours, RT (liquid) or 40° C. (semisolid excipients)", "result": 36.5, "unit": "mg/g"}, {"measurement": "Solubility", "setting": "[2]; Kolliphor HS 15, at least 48 hours, RT (liquid) or 40° C. (semisolid excipients)", "result": 53.6, "unit": "mg/g"}, {"measurement": "Solubility", "setting": "[2]; Kolliphor RH40, at least 48 hours, RT (liquid) or 40° C. (semisolid excipients)", "result": 52.4, "unit": "mg/g"}, {"measurement": "Solubility", "setting": "[2]; Labrafil M 1944 CS, at least 48 hours, RT (liquid) or 40° C. (semisolid excipients)", "result": 10.7, "unit": "mg/g"}, {"measurement": "Solubility", "setting": "[2]; Labrafil M 2125 CS, at least 48 hours, RT (liquid) or 40° C. (semisolid excipients)", "result": 9.3, "unit": "mg/g"}, {"measurement": "Solubility", "setting": "[2]; Labrasol ALF, at least 48 hours, RT (liquid) or 40° C. (semisolid excipients)", "result": 68.1, "unit": "mg/g"}, {"measurement": "Solubility", "setting": "[2]; Lauroglycol FCC, at least 48 hours, RT (liquid) or 40° C. (semisolid excipients)", "result": 16.0, "unit": "mg/g"}, {"measurement": "Solubility", "setting": "[2]; Maisine CC, at least 48 hours, RT (liquid) or 40° C. (semisolid excipients)", "result": 16.7, "unit": "mg/g"}, {"measurement": "Solubility", "setting": "[2]; Masester E8120, at least 48 hours, RT (liquid) or 40° C. (semisolid excipients)", "result": 65.3, "unit": "mg/g"}, {"measurement": "Solubility", "setting": "[2]; Miglyol 812N, at least 48 hours, RT (liquid) or 40° C. (semisolid excipients)", "result": 2.9, "unit": "mg/g"}, {"measurement": "Solubility", "setting": "[2]; Oleic Acid, at least 48 hours, RT (liquid) or 40° C. (semisolid excipients)", "result": 21.0, "unit": "mg/g"}, {"measurement": "Solubility", "setting": "[2]; PEG 400, at least 48 hours, RT (liquid) or 40° C. (semisolid excipients)", "result": 77.3, "unit": "mg/g"}, {"measurement": "Solubility", "setting": "[2]; Peceol, at least 48 hours, RT (liquid) or 40° C. (semisolid excipients)", "result": 22.8, "unit": "mg/g"}, {"measurement": "Solubility", "setting": "[2]; Sesame Oil, at least 48 hours, RT (liquid) or 40° C. (semisolid excipients)", "result": 1.9, "unit": "mg/g"}, {"measurement": "Solubility", "setting": "[2]; Span 80, at least 48 hours, RT (liquid) or 40° C. (semisolid excipients)", "result": 12.2, "unit": "mg/g"}, {"measurement": "Solubility", "setting": "[2]; Transcutol HP, at least 48 hours, RT (liquid) or 40° C. (semisolid excipients)", "result": 118.6, "unit": "mg/g"}, {"measurement": "Solubility", "setting": "[2]; Tween 20, at least 48 hours, RT (liquid) or 40° C. (semisolid excipients)", "result": 48.6, "unit": "mg/g"}, {"measurement": "Solubility", "setting": "[2]; Tween 80, at least 48 hours, RT (liquid) or 40° C. (semisolid excipients)", "result": 49.0, "unit": "mg/g"}, {"measurement": "Solubility", "setting": "[2]; Vitamin E TPGS, at least 48 hours, RT (liquid) or 40° C. (semisolid excipients)", "result": 40.8, "unit": "mg/g"}, {"measurement": "Solubility", "setting": "[2]; in most of the screened excipients", "result": "> 30", "unit": "mg/g"}, {"measurement": "solubility at 4 h", "setting": "[3]; [4]", "result": 0.8, "unit": "µg/mL"}, {"measurement": "solubility at 24 h", "setting": "[3]; [4]", "result": 0.8, "unit": "µg/mL"}, {"measurement": "solubility at 24 h", "setting": "[3]; [5]", "result": 0.8, "unit": "µg/mL"}, {"measurement": "solubility at 48 h", "setting": "[3]; [5]", "result": 1.7, "unit": "µg/mL"}, {"measurement": "solubility at 4 h", "setting": "[3]; [6]", "result": 0.7, "unit": "µg/mL"}, {"measurement": "solubility at 24 h", "setting": "[3]; [6]", "result": 0.8, "unit": "µg/mL"}, {"measurement": "solubility at 48 h", "setting": "[3]; [6]", "result": 1.6, "unit": "µg/mL"}, {"measurement": "solubility at 4 h", "setting": "[3]; [7]", "result": 0.9, "unit": "µg/mL"}, {"measurement": "solubility at 24 h", "setting": "[3]; [7]", "result": 0.9, "unit": "µg/mL"}, {"measurement": "solubility at 4 h", "setting": "[3]; Water (pH 5.0), 37° C.", "result": 0.6, "unit": "µg/mL"}, {"measurement": "solubility at 24 h", "setting": "[3]; Water (pH 5.0), 37° C.", "result": 0.7, "unit": "µg/mL"}]}
